Converted amounts (≈) assume the structure as drawn. Where two headings read alike, the source gives them in different places.

The record followed here is patent publication US4820698A, “Antimicrobial agents and process for their manufacture” (The Procter & Gamble Company, priority 1986, dated 1989).

Common to all, as to format: cell-based
Experiment [1] has as its system Klebsiella (G-) Pneumoniae ATCC. Put plainly: In vitro antibacterial activity, standard microdilution MIC assay. On the procedure:
The in vitro antibacterial activity of several tetraalkyl ethenylidenebisphosphonates, fosfomycin and Penicillin G were tested against various gram-positive and gram-negative bacteria using the standard microdilution Minimum Inhibitory Concentration (MIC) assay as disclosed in Laboratory Procedures in Clinical Microbiology (John A. Washington, editor), 281-311 (1985), incorporated herein by reference.
(In broth dilution the organism is exposed to a series of concentrations in liquid medium.)

The subject of experiment [2] is P. Aeruginosa (G-) ATCC 27853. Described as above. The following applies: P. Aeruginosa (G-) ATCC 27853, penicillin resistant.
The test system of experiment [3] is S. Aureus (G+) ATCC 27660. The description is as above. The following applies: S. Aureus (G+) ATCC 27660, penicillin resistant.
For experiment [4], the system named is S. Aureus (G+) ATCC 12715. The description is as above. The following applies: S. Aureus (G+) ATCC 12715, penicillin resistant.
Experiment [5] concerns S. Aureus (G+) ATCC 25923. The experiment is described as above.
Experiment [6] relates to Clostridium (G+) perfringens ATCC 3624. The experiment can be described thus: microbe, parasite or virus in culture.
The subject of experiment [7] is gram-positive microorganisms. Put plainly: In vitro antibacterial activity (MIC), comparison with fosfomycin.
The subject of experiment [8] is Streptococcus (G+) mutans, clinical isolate (first listed). Put plainly: In vitro antibacterial activity, standard microdilution MIC assay.
The subject of experiment [9] is Streptococcus (G+) mutans, clinical isolate (third listed). Described as above.
Experiment [10] concerns Streptococcus (G+) mutans, clinical isolate (second listed). The experiment is described as above.
Where [11] appears, read: Pseudomonas aeruginosa, ATCC27853, read-out: MIC.
The mark [12] stands for this setting: Staphylococcus aureus, ATCC27660, read-out: MIC.
The mark [13] stands for this setting: Staphylococcus aureus, ATCC12715, read-out: MIC.
The mark [14] stands for this setting: Staphylococcus aureus, ATCC25923, read-out: MIC.

As to `C=C(P(=O)(OC)OC)P(=O)(OC)OC` [A, Tetramethyl ethenylidenebisphosphonate], the MIC in experiment [1] is 405 µg/mL (≈ 1660 µM); in [2], 6,300 μg/ml; in experiment [3], 1,200 μg/ml; in experiment [4], 1,200 μg/ml; in [5], 430 µg/mL (≈ 1760 µM).
With `C=C(P(=O)(OCC)OCC)P(=O)(OCC)OCC` [B, Tetraethyl ethenylidenebisphosphonate], the MIC in experiment [2] was 25,000 μg/ml; in [3], 160 µg/mL (≈ 533 µM); in experiment [4] it was 180 µg/mL (≈ 600 µM); in experiment [5], 110 µg/mL (≈ 366 µM); in experiment [6], 52 µg/mL (≈ 173 µM).
For the compound `C=C(P(=O)(OCCCC)OCCCC)P(=O)(OCCCC)OCCCC` [C, Tetrabutyl ethenylidenebisphosphonate], in experiment [7], the “antibacterial efficacy against gram-positive microorganisms compared with fosfomycin” value was “superior to fosfomycin”. Moreover, the MIC in [8] was 1.2 µg/mL (≈ 2.91 µM); in experiment [2] (setting [11]), 25 mg/mL (≈ 60600 µM); in experiment [3] (setting [12]) it was 6.5 µg/mL (≈ 15.8 µM); in experiment [4] (setting [13]), 6.5 µg/mL (≈ 15.8 µM); in experiment [5] (setting [14]), 4.5 µg/mL (≈ 10.9 µM); in experiment [6] (Clostridium, ATCC3624), 2.1 µg/mL (≈ 5.09 µM). The MIC in [9] and in [10] was 11 µg/mL (≈ 26.7 µM) in each case.
Consider `C[C@@H]1O[C@@H]1P(=O)(O)O` [D, Fosfomycin, reference compound], for which the MIC was determined as 0.031 mg/mL (≈ 225 µM) in [2] (setting [11]), 180 µg/mL (≈ 1300 µM) in experiment [3] (setting [12]), 72 µg/mL (≈ 522 µM) in experiment [4] (setting [13]) and 56 µg/mL (≈ 406 µM) in [5] (setting [14]).
The matching figures for `CC1(C)S[C@@H]2[C@H](NC(=O)Cc3ccccc3)C(=O)N2[C@H]1C(=O)O` [E, Penicillin G, reference compound]: 24 mg/mL (≈ 71800 µM), 25000 µg/mL (≈ 74800 µM), 19000 µg/mL (≈ 56800 µM) and 25 µg/mL (≈ 74.8 µM).
